{
  "source": "patent US9422255B2",
  "about": "“S-imino-S-oxo-iminothiazine compounds as BACE inhibitors, compositions, and their use” (Merck Sharp & Dohme Corp., priority 2013, dated 2016)",
  "key": {"[1]": {"target": "purified human autoBACE-2 (Homo sapiens, UniProt Q9Y5Z0)", "sequence (Q9Y5Z0 63-518 limits assumed)": "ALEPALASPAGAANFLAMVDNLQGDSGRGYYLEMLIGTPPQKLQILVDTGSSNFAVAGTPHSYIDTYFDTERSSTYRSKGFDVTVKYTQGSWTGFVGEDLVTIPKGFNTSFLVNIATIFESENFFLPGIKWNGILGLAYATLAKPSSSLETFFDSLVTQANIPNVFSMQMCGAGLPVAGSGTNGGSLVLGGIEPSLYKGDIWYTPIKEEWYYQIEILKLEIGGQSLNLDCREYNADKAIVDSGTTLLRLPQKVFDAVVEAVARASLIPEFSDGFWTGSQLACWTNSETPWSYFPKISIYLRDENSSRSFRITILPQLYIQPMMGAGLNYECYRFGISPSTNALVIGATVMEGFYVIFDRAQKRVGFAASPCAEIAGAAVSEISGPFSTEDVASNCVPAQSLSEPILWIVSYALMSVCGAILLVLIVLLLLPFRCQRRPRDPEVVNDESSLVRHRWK", "experiment": "BACE-2 Assay (BACE-HTRF assay)", "format": "biochemical", "conditions": "Ki calculated from IC50 using the Cheng-Prusoff equation; QSY7-EISEVNLDAEFC-Eu-amide substrate, pH 5.0", "experimental": "Inhibitor IC50s at purified human autoBACE-2 are determined in a time-resolved endpoint proteolysis assay that measures hydrolysis of the QSY7-[…]-Eu-amide FRET peptide substrate (BACE-HTRF assay). […] DMSO is present at 5% final concentration in the assay. Following laser excitation of sample wells at 320 nm, the fluorescence signal at 620 nm is collected for 400 ms following a 50 μs delay on a RUBYstar HTRF plate reader (BMG Labtechnologies). Raw RFU data is normalized to maximum (1.0 nM BACE/DMSO) and minimum (no enzyme/DMSO) RFU values. […] The Ki values are calculated from the IC50 using the Cheng-Prusoff equation."}, "[2]": {"target": "soluble human BACE1 catalytic domain (Homo sapiens (Human), UniProt P56817)", "sequence (P56817 75-416)": "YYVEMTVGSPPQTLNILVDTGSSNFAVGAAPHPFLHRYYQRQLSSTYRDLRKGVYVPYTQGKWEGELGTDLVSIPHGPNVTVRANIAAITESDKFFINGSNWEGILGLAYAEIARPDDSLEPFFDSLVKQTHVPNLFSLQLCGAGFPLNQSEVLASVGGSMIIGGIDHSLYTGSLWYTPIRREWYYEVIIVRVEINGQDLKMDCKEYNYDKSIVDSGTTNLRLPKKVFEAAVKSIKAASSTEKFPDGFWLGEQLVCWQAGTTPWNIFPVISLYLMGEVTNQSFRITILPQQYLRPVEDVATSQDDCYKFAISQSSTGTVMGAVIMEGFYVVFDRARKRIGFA", "experiment": "BACE1 HTRF FRET Assay", "format": "biochemical", "conditions": "Ki calculated from IC50 using the Cheng-Prusoff equation; QSY7-APPswe-Eu substrate, pH 5.0; read-out: BACE 1 Ki", "description": "Na^+-Acetate pH 5.0; 1% Brij-35; Glycerol; Dimethyl Sulfoxide (DMSO); Recombinant human soluble BACE1 catalytic domain (>95% pure); APP Swedish mutant peptide substrate (QSY7-APP^swe-Eu): QSY7-EISEVNLDAEFC-Europium-amide.\nA homogeneous time-resolved FRET assay can be used to determine IC50 values for inhibitors of the soluble human BACE1 catalytic domain. This assay monitors the increase of 620 nm fluorescence that resulted from BACE1 cleavage of an APPswedish APP^swe mutant peptide FRET substrate (QSY7-EISEVNLDAEFC-Europium-amide). This substrate contains an N-terminal QSY7 moiety that serves as a quencher of the C-terminal Europium fluorophore (620 nm Em). In the absence of enzyme activity, 620 nm fluorescence is low in the assay and increased linearly over 3 hours in the presence of uninhibited BACE1 enzyme Inhibition of BACE1 cleavage of the QSY7-APP^swe-Eu substrate by inhibitors is manifested as a suppression of 620 nm fluorescence.\nVarying concentrations of inhibitors at 3× the final desired concentration in a volume of 10 ul are preincubated with purified human BACE1 catalytic domain (3 nM in 10 μl) for 30 minutes at 30° C. in reaction buffer containing 20 mM Na-Acetate pH 5.0, 10% glycerol, 0.1% Brij-35 and 7.5% DSMO. […]"}},
  "data": [
    {"smiles": "CN=S1(=O)C[C@@](C)(c2cc(NC(=O)c3ccc(Cl)cn3)ccc2F)NC(=N)[C@@]1(C)c1ccc(F)cc1", "note": "(some centres unmarked) [Example 10a]", "values": [
      {"measurement": "Ki", "setting": "[1]", "result": 106, "unit": "nM"},
      {"measurement": "Ki", "setting": "[2]", "result": 290, "unit": "nM"}
    ]}
  ]
}
